{"source": "patent US12723096B2", "about": "“Regimens and methods of treating multiple sclerosis using ofatumumab” (Novartis AG, priority 2016, dated 2026)", "key": {"[1]": {"test_system": "relapsing MS patients", "conditions": "Phase 2; cited from earlier work"}, "[2]": {"test_system": "patients with RMS", "conditions": "2 Phase 3 trials; over 2 years; cited from earlier work"}, "[3]": {"test_system": "peripheral B-cell", "assay": "Phase I/II study of single low-dose SC ofatumumab in rheumatoid arthritis: peripheral B-cell depletion", "assay_type": "in vivo, human", "conditions": "RA patients on stable MTX; single SC doses of 30, 60 or 100 mg", "experimental": "(§1) Ofatumumab targets a novel epitope on the CD20 molecule distinct from rituximab (RTX), a chimeric anti-CD20 MAb. RTX studies have utilized high intravenous (IV) doses (two 1000 mg doses 14 days apart) leading to very rapid B cell lysis resulting in infusion reactions despite the use of IV corticosteroid (CS) premedication. The first study involving ofatumumab was a phase I/II study to investigate the use of a low dose subcutaneous (SC) formulation of ofatumumab in rheumatoid arthritis (RA), administered without CS, potentially providing more controlled B cell depletion than that seen in the RTX studies. The primary objective was to investigate the safety and tolerability of a single SC dose of ofatumumab in rheumatoid arthritis (RA) patients on background methotrexate (MTX). Secondary objectives included investigating the minimum dose to achieve target peripheral B-cell depletion, the pharmacodynamic dose-response curve and B-cell repletion profile. […] Single doses up to 60 mg were tolerated and may provide a method of achieving B-cell depletion without additional CS premedication. This study established that the duration of peripheral B cell depletion increases with dose of ofatumumab (ofatumumab), an anti-CD20 antibody."}, "[4]": {"test_system": "relapsing-remitting multiple sclerosis (RRMS)", "assay": "Study OMS112831/MIRROR, repeat-dose SC ofatumumab in RRMS: brain MRI lesions and relapses", "assay_type": "in vivo, human", "conditions": "for reduction of mean cumulative number of new gadolinium-enhancing lesions vs placebo: p<0.001", "description": "The primary endpoint was the cumulative number of new gadolinium-enhancing lesions during weeks 0-12 on brain magnetic resonance imaging (MRI). Other endpoints included • (i) the cumulative number of new Gd-enhancing lesions at other time points; • (ii) (ii) the total volume at weeks 12 and 24 of a) new Gd-enhancing lesions, b) new/newly enlarged T2 lesions, and c) T1 hypointense lesions; • (iii) the proportion of patients free from relapses; • (iv) Expanded Disability Status Scale (EDSS) scores; • (v) Multiple Sclerosis Functional Composite (MSFC) and their component scores; • (vi) Modified Fatigue Impact Scale (MFIS); and • (vii) Evaluation of the use of the initial conditioning ofatumumab dose."}, "[5]": {"conditions": "oncology studies; Arzerra US prescribing information 2016; cited from earlier work"}, "[6]": {"test_system": "CD19+ B cells", "assay": "Study OMS112831/MIRROR: CD19 B-cell counts", "assay_type": "in vivo, human", "quoted_text": "(§2) In this study, called MIRROR (MRI study In RRMS: evaluating ofatumumab Regimen), patients received ofatumumab 3 mg, 30 mg, or 60 mg every 12 weeks (q12w), or ofatumumab 60 mg every 4 weeks (q4w). To evaluate whether tolerability to the higher ofatumumab doses (30 mg and 60 mg) could be improved by the administration of an initial, lower, conditioning dose of ofatumumab (theoretically leading to the gradual lysis of B cells and potentially reducing cytokine release reactions), patients in the 30 mg q12w, 60 mg q12w and 60 mg q4w dose groups were randomized (1:1) to receive either placebo or a conditioning dose of ofatumumab 3 mg at week 0."}, "[7]": {"conditions": "in vivo", "quoted_text": "as §2"}, "[8]": {"assay": "Phase I/II study of single low-dose SC ofatumumab in rheumatoid arthritis: safety and tolerability", "assay_type": "in vivo, human", "conditions": "RA patients; single doses up to 60 mg, without CS premedication", "experimental": "as §1"}, "[9]": {"test_system": "patients with RRMS", "conditions": "iv 100, 300, 700 mg; each dose level, both treatment periods; cited from earlier work"}, "[10]": {"test_system": "circulating B-cell", "conditions": "iv 100, 300, 700 mg; each dose level; cited from earlier work"}}, "data": [{"substance": "rituximab", "values": [{"measurement": "MRI-measured inflammatory activity", "setting": "[1]", "result": "marked reductions"}]}, {"substance": "ocrelizumab", "values": [{"measurement": "relapse rates vs interferon beta 1a", "setting": "[2]", "result": "significantly reduced"}, {"measurement": "MRI-measured inflammatory activity", "setting": "[1]", "result": "marked reductions"}]}, {"substance": "ofatumumab", "values": [{"measurement": "peripheral B-cell depletion", "setting": "[3]", "result": "profound and sustained peripheral B-cell depletion"}, {"measurement": "MRI effect", "setting": "[4]; 3 mg every 12 weeks", "result": "clear MRI effect"}, {"measurement": "MRI efficacy", "setting": "[4]; 30 mg every 12 weeks", "result": "very close to maximal MRI efficacy"}, {"measurement": "added efficacy compared with 60 mg every 12 weeks", "setting": "[4]; 60 mg every 4 weeks", "result": "didn't add any efficacy"}, {"measurement": "reduction of cumulative new/newly enlarged T2 lesions vs placebo", "setting": "[4]; weeks 0-12", "result": "60-72%"}, {"measurement": "patients who experienced a relapse", "setting": "[4]; weeks 0-12, 17/164 patients", "result": 10, "unit": "%"}, {"measurement": "reduction of mean cumulative number of new gadolinium-enhancing lesions vs placebo", "setting": "[4]; weeks 0-12", "result": 65, "unit": "%"}, {"measurement": "reduction of mean cumulative number of new gadolinium-enhancing lesions vs placebo", "setting": "[4]; weeks 4-12, post hoc analysis, cumulative ofatumumab doses 2::30 mg", "result": "≥ 90", "unit": "%"}, {"measurement": "incidence of anti-drug antibodies (ADA) against ofatumumab", "setting": "[5]", "result": "< 1 % of patients"}, {"measurement": "depletion of CD19 B-cells", "setting": "[6]; 3, 30, 60 mg q12w, 60 mg q4w SC", "result": "dose-dependently"}, {"measurement": "B-cell repopulation once dosing ceased", "setting": "[6]; all treatments, over 60 weeks of follow up, compared to high-dose i.v. anti-CD20 antibodies", "result": "relatively rapid B-cell repopulation"}, {"measurement": "B-cell repletion during the inter-dosing interval", "setting": "[6]; monthly dosing (60 mg q4 weeks)", "result": "no signs of B-cell repletion"}, {"measurement": "adverse events versus lower dose regimens of 3 or 30 mg q12 weeks", "setting": "[7]", "result": "more adverse events"}, {"measurement": "injection-related reactions (most commonly reported AE)", "setting": "[7]", "result": 52, "unit": "%"}, {"measurement": "injection-related reactions mild/moderate in severity", "setting": "[7]", "result": "97 % of the events"}, {"measurement": "opportunistic infections", "setting": "[7]", "result": "no cases"}, {"measurement": "overall safety and tolerability", "setting": "[7]", "result": "safe and well tolerated"}, {"measurement": "tolerability of single SC dose", "setting": "[8]", "result": "tolerated"}, {"measurement": "reduction in MRI lesion activity versus placebo", "setting": "[9]", "result": "up to 96%"}, {"measurement": "circulating B-cell counts", "setting": "[10]", "result": "profound reduction"}]}]}
